Results published in patent US20230000870A1, “METHODS OF TREATING CANCER IN BIOMARKER-IDENTIFIED PATIENTS WITH INHIBITORS OF CYCLIN-DEPENDENT KINASE 7 (CDK7)” (Syros Pharmaceuticals, Inc., priority 2019, published 2023).

How the values were obtained:
[1] = biological target: CDK9/Cyclin T1 complex (Homo sapiens, UniProt P50750); assay: CDK9 kinase inhibition assay (Caliper/LabChip EZ Reader); format: biochemical; details: CDK9/Cyclin T1 8 nM, ATP 2 mM, 15 min at 27° C.
Method in brief: (§1)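 Incubation times were set for ~20% (±5%) peptide phosphorylation by uninhibited enzyme: CDK7 35 min, CDK2 35 min (0.5 nM complex, 2 μM 5-FAM-CDK7tide, 2 mM MgCl2), CDK12 3 hr (50 nM, 2 μM 5-FAM-CDK9tide, 2 mM MgCl2), CDK9 15 min (8 nM, 2 μM 5-FAM-CDK9tide, 10 mM MgCl2). Read-out on LabChip EZ Reader, 27° C.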

[2] = tested on: HCC70 cells; assay: Inhibition of proliferation of HCC70 cells (CyQUANT Direct, 72 hour); format: cell-based, human; details: read-out: Inhibition of Proliferation of HCC70 Cells (calculated IC50)
Description: HCC70 cells: HCC70 cells are a cell line derived from human triple negative breast cancer. Representative compounds of the invention were tested at different concentrations (from 4 μM to […]; 0.5 log serial dilutions) for their ability to inhibit the proliferation of HCC70 cells. Known CDK inhibitors dinaciclib or N-((1S,3R)-3-((5-chloro-4-(1H-indol-3-yl) pyrimidin-2-yl)amino)cyclohexyl)-5-((E)-4-(dimethylamino)but-2-enamido)picolinamide and triptolide were used as positive controls. Cells were grown in ATCC-formulated RPMI-1640 Medium (ATCC 30-2001)+10% FBS. The cells were cultured at 37° C. in a humidified chamber in the presence of 5% CO2. Proliferation assays were conducted over a 72 hour time period. CyQUANT® Direct Cell Proliferation Assay (Life Technologies, Chicago, Ill. USA) was used to assess the anti-proliferative effects of the compounds following manufacturer's directions and utilizing the reagents supplied with the CyQUANT® Direct Cell kit.

[3] = biological target: CDK2/Cyclin E1 complex (Homo sapiens, UniProt P24941); assay: CDK2 kinase inhibition assay (Caliper/LabChip EZ Reader); format: biochemical; details: CDK2/Cyclin E1 0.5 nM, ATP 2 mM, 35 min at 27° C.
Method in brief: as §1

[4] = biological target: T1, CDK12 (aa686-1082)/Cyclin K complex (Homo sapiens, UniProt Q9NYV4); assay: CDK12 kinase inhibition assay (Caliper/LabChip EZ Reader); format: biochemical; details: CDK12 (aa686-1082)/Cyclin K 50 nM, ATP 2 mM, 3 hr at 27° C.
T1 construct: CDK12 (aa686-1082)/Cyclin K complex
T1 sequence (Q9NYV4 686-1082): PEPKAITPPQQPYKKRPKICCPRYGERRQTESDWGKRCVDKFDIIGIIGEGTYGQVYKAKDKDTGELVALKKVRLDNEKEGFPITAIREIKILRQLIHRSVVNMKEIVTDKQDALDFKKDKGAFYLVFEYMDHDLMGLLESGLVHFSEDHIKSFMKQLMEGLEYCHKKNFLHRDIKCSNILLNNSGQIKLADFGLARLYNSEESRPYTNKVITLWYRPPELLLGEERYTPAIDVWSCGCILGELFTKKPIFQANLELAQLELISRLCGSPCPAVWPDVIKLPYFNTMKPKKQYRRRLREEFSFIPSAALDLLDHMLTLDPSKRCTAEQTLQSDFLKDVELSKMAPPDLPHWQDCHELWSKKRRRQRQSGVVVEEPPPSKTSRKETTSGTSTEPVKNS
T1 sequence (O75909 whole entry partner, the tested form may be a part): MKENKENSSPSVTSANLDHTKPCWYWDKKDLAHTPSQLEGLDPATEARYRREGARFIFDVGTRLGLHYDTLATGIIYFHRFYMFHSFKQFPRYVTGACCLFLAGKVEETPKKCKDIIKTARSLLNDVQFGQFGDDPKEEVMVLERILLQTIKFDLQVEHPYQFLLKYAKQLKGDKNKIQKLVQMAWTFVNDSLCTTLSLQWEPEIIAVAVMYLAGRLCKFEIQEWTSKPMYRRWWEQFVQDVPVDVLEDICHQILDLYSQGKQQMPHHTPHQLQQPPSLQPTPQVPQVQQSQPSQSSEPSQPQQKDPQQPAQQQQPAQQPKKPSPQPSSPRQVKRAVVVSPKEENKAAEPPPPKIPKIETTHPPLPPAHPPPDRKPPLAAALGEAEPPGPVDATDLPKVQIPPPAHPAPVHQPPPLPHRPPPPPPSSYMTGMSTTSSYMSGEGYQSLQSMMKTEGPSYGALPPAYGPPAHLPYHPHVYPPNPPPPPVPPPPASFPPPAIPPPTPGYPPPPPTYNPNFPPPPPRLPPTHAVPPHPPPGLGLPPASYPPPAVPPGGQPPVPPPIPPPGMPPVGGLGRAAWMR
Method in brief: as §1

[5] = biological target: CDK7/Cyclin H/MAT1 complex (Homo sapiens, UniProt P50613); assay: CDK7 kinase inhibition assay (Caliper/LabChip EZ Reader); format: biochemical; details: CDK7/Cyclin H/MAT1 6 nM, ATP 2 mM, 35 min at 27° C.
Chain of CDK7/Cyclin H/MAT1 complex (P50613 whole entry): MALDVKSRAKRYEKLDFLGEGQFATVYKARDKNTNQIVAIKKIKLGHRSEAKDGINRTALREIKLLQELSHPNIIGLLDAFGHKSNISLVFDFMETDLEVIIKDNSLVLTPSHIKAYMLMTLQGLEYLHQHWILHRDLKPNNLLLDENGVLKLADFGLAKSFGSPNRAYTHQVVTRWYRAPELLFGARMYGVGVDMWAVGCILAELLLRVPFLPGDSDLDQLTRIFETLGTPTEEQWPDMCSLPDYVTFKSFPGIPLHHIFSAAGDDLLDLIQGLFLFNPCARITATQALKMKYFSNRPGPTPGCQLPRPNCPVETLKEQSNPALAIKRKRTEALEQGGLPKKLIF
Chain of CDK7/Cyclin H/MAT1 complex (P51946 whole entry partner): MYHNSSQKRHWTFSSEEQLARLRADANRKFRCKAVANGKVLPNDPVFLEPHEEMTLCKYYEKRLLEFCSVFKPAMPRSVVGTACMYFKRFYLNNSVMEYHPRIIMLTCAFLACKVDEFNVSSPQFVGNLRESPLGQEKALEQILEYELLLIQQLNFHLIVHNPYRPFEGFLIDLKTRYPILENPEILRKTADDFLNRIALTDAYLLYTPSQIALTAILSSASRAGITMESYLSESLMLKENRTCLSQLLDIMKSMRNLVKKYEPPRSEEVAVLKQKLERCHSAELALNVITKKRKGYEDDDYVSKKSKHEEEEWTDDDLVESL
Chain of CDK7/Cyclin H/MAT1 complex (P51948 whole entry partner): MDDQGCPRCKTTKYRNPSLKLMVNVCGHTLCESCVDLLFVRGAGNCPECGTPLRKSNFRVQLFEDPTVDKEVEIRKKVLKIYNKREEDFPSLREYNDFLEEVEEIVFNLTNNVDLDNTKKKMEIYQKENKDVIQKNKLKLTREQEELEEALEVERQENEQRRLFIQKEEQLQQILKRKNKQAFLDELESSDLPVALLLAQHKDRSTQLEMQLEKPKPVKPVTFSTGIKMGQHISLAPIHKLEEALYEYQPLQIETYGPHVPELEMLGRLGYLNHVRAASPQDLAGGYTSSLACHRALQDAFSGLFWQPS
Method in brief: as §1

Chain of CDK9/Cyclin T1 complex (P50750 whole entry): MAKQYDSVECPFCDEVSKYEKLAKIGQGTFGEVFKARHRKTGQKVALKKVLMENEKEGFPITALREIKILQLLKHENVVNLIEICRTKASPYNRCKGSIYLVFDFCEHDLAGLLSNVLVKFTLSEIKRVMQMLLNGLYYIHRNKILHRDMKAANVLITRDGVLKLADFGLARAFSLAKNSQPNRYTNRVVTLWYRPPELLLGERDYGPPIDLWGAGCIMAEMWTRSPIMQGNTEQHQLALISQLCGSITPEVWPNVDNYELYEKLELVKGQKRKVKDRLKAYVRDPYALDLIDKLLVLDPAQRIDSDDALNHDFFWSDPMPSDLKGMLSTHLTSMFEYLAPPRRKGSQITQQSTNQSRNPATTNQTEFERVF
Chain of CDK9/Cyclin T1 complex (O60563 whole entry partner): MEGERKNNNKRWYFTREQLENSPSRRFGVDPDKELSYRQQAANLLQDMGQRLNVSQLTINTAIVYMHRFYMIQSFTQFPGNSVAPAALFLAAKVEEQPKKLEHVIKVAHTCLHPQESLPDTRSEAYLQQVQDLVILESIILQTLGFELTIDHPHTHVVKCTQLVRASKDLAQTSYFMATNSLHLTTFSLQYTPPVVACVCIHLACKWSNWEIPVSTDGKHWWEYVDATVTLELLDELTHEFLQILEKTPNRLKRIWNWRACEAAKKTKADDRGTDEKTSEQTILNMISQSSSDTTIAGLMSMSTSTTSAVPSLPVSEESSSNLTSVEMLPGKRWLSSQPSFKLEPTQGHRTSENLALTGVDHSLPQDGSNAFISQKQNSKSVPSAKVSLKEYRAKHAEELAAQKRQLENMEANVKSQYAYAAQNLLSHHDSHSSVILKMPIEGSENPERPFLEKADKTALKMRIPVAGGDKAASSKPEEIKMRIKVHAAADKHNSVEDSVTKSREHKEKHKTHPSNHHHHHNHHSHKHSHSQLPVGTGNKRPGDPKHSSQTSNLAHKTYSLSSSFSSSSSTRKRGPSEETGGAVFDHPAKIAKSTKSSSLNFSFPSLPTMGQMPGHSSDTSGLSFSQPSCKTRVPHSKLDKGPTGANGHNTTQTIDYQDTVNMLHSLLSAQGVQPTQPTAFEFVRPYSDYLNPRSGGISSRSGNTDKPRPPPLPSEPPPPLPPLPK

Work on `FC(F)(F)c1cnc(NC2CCCNC2)nc1-c1c[nH]c2cc(-c3ccc4[nH]cnc4c3)ccc12` (stereo not drawn) [Compound 313] yielded an IC50 [1] of 200 to 5000 nM, an IC50 [2] of 100 to 1000 nM and an IC50 [3] of 200 to 5000 nM. For the same compound, the IC50 [4] was 200 to 5000 nM and the IC50 [5] was less than 20 nM.
Work on `NC(=O)c1cccc(-c2ccc3c(-c4nc(NC5CCCNC5)ncc4C(F)(F)F)c[nH]c3c2)c1` (stereo not drawn) [Compound 314] yielded an IC50 [1] of 200 to 5000 nM, an IC50 [2] of 100 to 1000 nM and an IC50 [3] of 200 to 5000 nM. It also gave an IC50 [4] of 200 to 5000 nM and an IC50 [5] of less than 20 nM.
`OCc1cccc(-c2ccc3c(-c4nc(NC5CCCNC5)ncc4C(F)(F)F)c[nH]c3c2)n1` (stereo not drawn) [Compound 316] showed an IC50 [1] of no less than 5000 nM, an IC50 [2] of 100 to 1000 nM and an IC50 [3] of 200 to 5000 nM. For the same compound, the IC50 [4] was 200 to 5000 nM and the IC50 [5] was less than 20 nM.
Work on `OCc1cncc(-c2ccc3c(-c4nc(NC5CCCNC5)ncc4C(F)(F)F)c[nH]c3c2)c1` (stereo not drawn) [Compound 318] yielded an IC50 [1] of 200 to 5000 nM, an IC50 [2] of 100 to 1000 nM and an IC50 [3] of 200 to 5000 nM. The IC50 [4] was 200 to 5000 nM and the IC50 [5] was less than 20 nM.
`Cn1cc(-c2ccc3c(-c4nc(NC5CCCNC5)ncc4C(F)(F)F)c[nH]c3c2)ccc1=O` (stereo not drawn) [Compound 321] gave an IC50 [1] of no less than 5000 nM, an IC50 [2] of 100 to 1000 nM and an IC50 [3] of no less than 5000 nM. It also gave an IC50 [4] of 200 to 5000 nM and an IC50 [5] of less than 20 nM.
For `OCc1ncccc1-c1ccc2c(-c3nc(NC4CCCNC4)ncc3C(F)(F)F)c[nH]c2c1` (stereo not drawn) [Compound 323], the IC50 [1] was no less than 5000 nM, the IC50 [2] was 100 to 1000 nM and the IC50 [3] was 200 to 5000 nM. It also gave an IC50 [4] of 200 to 5000 nM and an IC50 [5] of less than 20 nM.
In the case of `FC(F)(F)c1cnc(NC2CCCNC2)nc1-c1c[nH]c2cc(-c3cnccn3)ccc12` (stereo not drawn) [Compound 328], the IC50 [1] is reported as 200 to 5000 nM, the IC50 [2] is reported as less than 100 nM and the IC50 [3] is reported as 200 to 5000 nM. For the same compound, the IC50 [4] was 200 to 5000 nM and the IC50 [5] was less than 20 nM.
With `Cc1noc(C)c1-c1ccc2c(-c3nc(N[C@H]4CCCNC4)ncc3C(F)(F)F)c[nH]c2c1` [Compound 330] the IC50 [1] was 200 to 5000 nM, the IC50 [2] was less than 100 nM and the IC50 [3] was 200 to 5000 nM. For the same compound, the IC50 [4] was 200 to 5000 nM and the IC50 [5] was less than 20 nM.
With `FC(F)(F)c1cnc(N[C@H]2CCCNC2)nc1-c1c[nH]c2cc(-c3nccs3)ccc12` [Compound 332] the IC50 [1] was 200 to 5000 nM, the IC50 [2] was less than 100 nM and the IC50 [3] was 200 to 5000 nM. For the same compound, the IC50 [4] was 200 to 5000 nM and the IC50 [5] was less than 20 nM.
Compound `O=c1[nH]cc(-c2ccc3c(-c4nc(NC5CCCNC5)ncc4C(F)(F)F)c[nH]c3c2)c(=O)[nH]1` (stereo not drawn) [Compound 333] has an IC50 [1] of no less than 5000 nM, an IC50 [2] of 1000 to 5000 nM and an IC50 [3] of no less than 5000 nM. The IC50 [4] was 200 to 5000 nM and the IC50 [5] was less than 20 nM.
`O=C1CCc2ccc(-c3ccc4c(-c5nc(NC6CCCNC6)ncc5C(F)(F)F)c[nH]c4c3)cc2N1` (stereo not drawn) [Compound 334] gave an IC50 [1] of 200 to 5000 nM, an IC50 [2] of 100 to 1000 nM and an IC50 [3] of 200 to 5000 nM. The IC50 [4] was 200 to 5000 nM and the IC50 [5] was 20 to 200 nM.
`Cc1ccncc1-c1ccc2c(-c3nc(NC4CCCNC4)ncc3C(F)(F)F)c[nH]c2c1` (stereo not drawn) [Compound 336] was tested, and the IC50 [1] was 200 to 5000 nM, the IC50 [2] was less than 100 nM and the IC50 [3] was 200 to 5000 nM. For the same compound, the IC50 [4] was 200 to 5000 nM and the IC50 [5] was less than 20 nM.
`CC(=O)NCc1cccc(-c2ccc3c(-c4nc(NC5CCCNC5)ncc4C(F)(F)F)c[nH]c3c2)c1` (stereo not drawn) [Compound 338] gave an IC50 [1] of 200 to 5000 nM, an IC50 [2] of 100 to 1000 nM and an IC50 [3] of 200 to 5000 nM. It also gave an IC50 [4] of 200 to 5000 nM and an IC50 [5] of 20 to 200 nM.
Compound `FC(F)(F)c1cnc(NC2CCCNC2)nc1-c1c[nH]c2cc(-c3ccnc4ccccc34)ccc12` (stereo not drawn) [Compound 339] has an IC50 [1] of no less than 5000 nM, an IC50 [2] of 1000 to 5000 nM and an IC50 [3] of no less than 5000 nM. It also gave an IC50 [4] of 200 to 5000 nM and an IC50 [5] of 20 to 200 nM.
In the case of `O=C(c1cccc(-c2ccc3c(-c4nc(NC5CCCNC5)ncc4C(F)(F)F)c[nH]c3c2)c1)N1CCCC1` (stereo not drawn) [Compound 340], the IC50 [1] is reported as 200 to 5000 nM, the IC50 [2] is reported as 1000 to 5000 nM and the IC50 [3] is reported as 200 to 5000 nM. For the same compound, the IC50 [4] was 200 to 5000 nM and the IC50 [5] was 20 to 200 nM.
For `FC(F)(F)c1cnc(N[C@H]2CCCNC2)nc1-c1c[nH]c2cc(-c3cccc(Oc4ccccc4)c3)ccc12` [Compound 341], the IC50 [1] was no less than 5000 nM, the IC50 [2] was 1000 to 5000 nM and the IC50 [3] was no less than 5000 nM. The IC50 [4] was no less than 5000 nM and the IC50 [5] was 200 to 5000 nM.
`FC(F)(F)c1cnc(NC2CCCNC2)nc1-c1c[nH]c2cc(-c3ccc4c(c3)OCCO4)ccc12` (stereo not drawn) [Compound 342] showed an IC50 [1] of no less than 5000 nM, an IC50 [2] of 1000 to 5000 nM and an IC50 [3] of no less than 5000 nM. The IC50 [4] was 200 to 5000 nM and the IC50 [5] was 20 to 200 nM.
With `FC(F)(F)c1cnc(N[C@H]2CCCNC2)nc1-c1c[nH]c2cc(-c3ccc4ncsc4c3)ccc12` [Compound 343] the IC50 [1] was 200 to 5000 nM, the IC50 [2] was 100 to 1000 nM and the IC50 [3] was 200 to 5000 nM. The IC50 [4] was 200 to 5000 nM and the IC50 [5] was 20 to 200 nM.
